In PubChem BioAssay (NCI):
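All cell lines were grown in 96-well plates and treated with compound for 48 hours. TGI denotes the concentration required for complete inhibition of growth.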

Columns and labels:
Assay in all cases: inhibition of tumour cell growth, NCI panel, 48 h
[1] = tested on: SF-268 CNS
[2] = tested on: CCRF-CEM leukemia
[3] = tested on: HCT-116 colon
[4] = tested on: DMS 114 small cell lung
[5] = tested on: XF 498 CNS
[6] = tested on: K-562 leukemia
[7] = tested on: NCI-H226 lung
[8] = tested on: SF-295 CNS
[9] = tested on: SK-MEL-2 melanoma
[10] = tested on: KM20L2 colon
[11] = tested on: A549 NSCLC
[12] = tested on: RXF-631 renal
[13] = tested on: UACC-62 melanoma
[14] = tested on: HT29 colon
[15] = tested on: DMS 273 small cell lung
[16] = tested on: M19-MEL melanoma
[17] = tested on: M14 melanoma
[18] = tested on: OVCAR-4 ovarian
[19] = tested on: TK-10 renal
[20] = tested on: NCI-H522 lung
[21] = tested on: ACHN renal
[22] = tested on: 786-0 renal
[23] = tested on: OVCAR-5 ovarian
[24] = tested on: COLO 205 colon
[25] = tested on: HL-60(TB) leukemia
[26] = tested on: KM12 colon
[27] = tested on: RPMI-8226 leukemia
[28] = tested on: DLD-1 colon
[29] = tested on: HCT-15 colon
[30] = tested on: IGROV1 ovarian
[31] = tested on: SNB-75 CNS
[32] = tested on: LXFL 529 NSCLC
[33] = tested on: SK-MEL-5 melanoma
[34] = tested on: SN12C renal
[35] = tested on: NCI-H23 lung
[36] = tested on: EKVX NSCLC
[37] = tested on: SK-MEL-28 melanoma
[38] = tested on: U251 CNS
[39] = tested on: HCC-2998 colon
[40] = tested on: UO-31 renal
[41] = tested on: OVCAR-3 ovarian
[42] = tested on: CAKI-1 renal
[43] = tested on: MALME-3M melanoma
[44] = tested on: A498 renal
[45] = tested on: HOP-62 NSCLC
[46] = tested on: UACC-257 melanoma
[47] = tested on: HOP-92 NSCLC
[48] = tested on: MOLT-4 leukemia
[49] = tested on: SNB-19 CNS
[50] = tested on: SK-OV-3 ovarian
[51] = tested on: SF-539 CNS
[52] = tested on: SW-620 colon
[53] = tested on: NCI-H460 lung
[54] = tested on: OVCAR-8 ovarian
[55] = tested on: LOX IMVI melanoma
[56] = tested on: SNB-78 CNS
[57] = tested on: SR leukemia
[58] = tested on: HOP-18 NSCLC
[59] = tested on: RXF 393 renal

O=C1C2=C(c3ccccc31)C(c1ccc(Cl)cc1)N1C(=O)CCSC1=N2 (stereo not drawn)
TGI [1]: > 100 µM | TGI [2]: > 100 µM | TGI [3]: > 100 µM | TGI [4]: > 100 µM | TGI [5]: > 100 µM | TGI [6]: > 100 µM | TGI [7]: > 100 µM | TGI [8]: > 100 µM | TGI [9]: > 100 µM | TGI [10]: > 100 µM | TGI [11]: > 100 µM | TGI [12]: > 100 µM | TGI [13]: > 100 µM | TGI [14]: > 100 µM | TGI [15]: > 100 µM | TGI [16]: > 100 µM | TGI [17]: > 100 µM | TGI [18]: > 100 µM | TGI [19]: > 100 µM | TGI [20]: > 100 µM | TGI [21]: > 100 µM | TGI [22]: > 100 µM | TGI [23]: > 100 µM | TGI [24]: > 100 µM | TGI [25]: > 100 µM | TGI [26]: > 100 µM | TGI [27]: > 100 µM | TGI [28]: > 100 µM | TGI [29]: > 100 µM | TGI [30]: > 100 µM | TGI [31]: > 100 µM | TGI [32]: > 100 µM | TGI [33]: > 100 µM | TGI [34]: > 100 µM | TGI [35]: > 100 µM | TGI [36]: > 100 µM | TGI [37]: > 100 µM | TGI [38]: > 100 µM | TGI [39]: > 100 µM | TGI [40]: > 100 µM | TGI [41]: > 100 µM | TGI [42]: > 100 µM | TGI [43]: > 100 µM | TGI [44]: > 100 µM | TGI [45]: > 100 µM | TGI [46]: > 100 µM | TGI [47]: > 100 µM | TGI [48]: > 100 µM | TGI [49]: > 100 µM | TGI [50]: > 100 µM | TGI [51]: > 100 µM | TGI [52]: > 100 µM

C/C(=N\N(C)C)c1sc(-n2nc(-c3ccccc3)cc2-c2ccccc2)nc1C
TGI [1]: > 100 µM | TGI [2]: > 100 µM | TGI [3]: > 100 µM | TGI [53]: > 100 µM | TGI [4]: > 100 µM | TGI [54]: > 100 µM | TGI [5]: > 100 µM | TGI [6]: > 100 µM | TGI [7]: > 100 µM | TGI [8]: > 100 µM | TGI [9]: > 100 µM | TGI [10]: > 100 µM | TGI [11]: > 100 µM | TGI [55]: 35.3 µM | TGI [12]: > 100 µM | TGI [13]: > 100 µM | TGI [14]: > 100 µM | TGI [15]: > 100 µM | TGI [16]: > 100 µM | TGI [17]: > 100 µM | TGI [18]: > 100 µM | TGI [56]: > 100 µM | TGI [19]: > 100 µM | TGI [20]: > 100 µM | TGI [21]: > 100 µM | TGI [22]: > 100 µM | TGI [23]: 82.4 µM | TGI [24]: > 100 µM | TGI [25]: > 100 µM | TGI [26]: > 100 µM | TGI [28]: > 100 µM | TGI [29]: > 100 µM | TGI [57]: > 100 µM | TGI [30]: > 100 µM | TGI [31]: 81.1 µM | TGI [32]: > 100 µM | TGI [33]: > 100 µM | TGI [34]: > 100 µM | TGI [35]: > 100 µM | TGI [58]: > 100 µM | TGI [36]: > 100 µM | TGI [37]: > 100 µM | TGI [59]: > 100 µM | TGI [38]: > 100 µM | TGI [39]: > 100 µM | TGI [40]: > 100 µM | TGI [41]: > 100 µM | TGI [42]: > 100 µM | TGI [43]: > 100 µM | TGI [44]: > 100 µM | TGI [45]: > 100 µM | TGI [46]: > 100 µM | TGI [47]: > 100 µM | TGI [48]: > 100 µM | TGI [49]: > 100 µM | TGI [50]: > 100 µM | TGI [51]: > 100 µM | TGI [52]: > 100 µM

CC1=C(C(=O)Nc2ccc([N+](=O)[O-])cc2)C(c2ccco2)C(C(=O)Nc2ccc([N+](=O)[O-])cc2)=C(C)N1
TGI [1]: > 100 µM | TGI [2]: 51.2 µM | TGI [53]: > 100 µM | TGI [4]: 43.2 µM | TGI [54]: > 100 µM | TGI [5]: > 100 µM | TGI [6]: > 100 µM | TGI [7]: > 100 µM | TGI [8]: > 100 µM | TGI [9]: 28 µM | TGI [10]: 60 µM | TGI [11]: > 100 µM | TGI [55]: > 100 µM | TGI [12]: > 100 µM | TGI [14]: > 100 µM | TGI [16]: 77.2 µM | TGI [17]: > 100 µM | TGI [18]: 46.7 µM | TGI [56]: 78.8 µM | TGI [19]: 94.3 µM | TGI [20]: 64.3 µM | TGI [21]: 53.4 µM | TGI [22]: > 100 µM | TGI [23]: > 100 µM | TGI [24]: 51.1 µM | TGI [25]: 26.5 µM | TGI [26]: 33.9 µM | TGI [27]: 25.5 µM | TGI [28]: > 100 µM | TGI [30]: > 100 µM | TGI [31]: > 100 µM | TGI [32]: > 100 µM | TGI [33]: 93.4 µM | TGI [34]: > 100 µM | TGI [35]: 65.9 µM | TGI [36]: 73.6 µM | TGI [37]: > 100 µM | TGI [59]: 60.3 µM | TGI [38]: > 100 µM | TGI [39]: 47.9 µM | TGI [40]: 60.1 µM | TGI [41]: 88.3 µM | TGI [42]: 90.1 µM | TGI [43]: 55.1 µM | TGI [44]: 82 µM | TGI [45]: 71.1 µM | TGI [46]: 98.5 µM | TGI [47]: 56.8 µM | TGI [48]: 52.5 µM | TGI [49]: > 100 µM | TGI [50]: 62.9 µM | TGI [51]: > 100 µM | TGI [52]: > 100 µM
